Laboratory results from US11696913B2, “Prolonged ectoparasite-controlling agent for animal” (MITSUI CHEMICALS AGRO, INC., priority 2017, dated 2023).
Like-named read-outs stand apart in the source and are kept apart here.

Assays:
Ctenocephalides felis [1] = experiment: In vitro contact test with fleas; conditions: read-out: insecticidal activity; for pest or weed control at 0.2 µg/cm2, 0.2 µg/cm2: dose 0.2 μg/cm^2, dead or moribund fleas after 48 h; for pest or weed control at 1 µg/cm2, 1 µg/cm2: dose 1 μg/cm^2, dead or moribund fleas after 48 h
Procedure, shortened: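 Adult male and female cat fleas (5-10 per tube) placed in glass tubes coated with compound from acetone solution (900 ppm gives 5 μg/cm^2), kept at room temperature and ambient humidity. After 48 h, motionless or uncoordinated fleas scored dead or moribund; activity expressed as % dead or moribund.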

Amblyomma americanum = experiment: In vitro contact test with hard ticks (Amblyomma americanum nymphs); conditions: read-out: acaricidal activity; for pest or weed control at 0.2 µg/cm2, 0.2 µg/cm2: dose 0.2 μg/cm^2, 48 h; for pest or weed control at 1 µg/cm2, 1 µg/cm2: dose 1 μg/cm^2, 48 h
Procedure, shortened: (§1)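 Adult R. sanguineus, I. ricinus, D. variabilis or A. americanum nymphs exposed in glass vials coated with compound from acetone (900 ppm gives 5 μg/cm^2). Held 48 h at room temperature (R. sanguineus) or 21° C., 85% rel. hum.; then heated at 45-50° C. ≤5 min, motionless or uncoordinated ticks scored dead/moribund.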

Ixodes ricinus = experiment: In vitro contact test with adult hard ticks (Ixodes ricinus); conditions: read-out: acaricidal activity; for pest or weed control at 5 µg/cm2, 5 µg/cm2: dose 5 μg/cm^2, 48 h
Description: In Vitro Contact Tests with Adult Hard Ticks
In vitro contact tests with ticks were conducted with adult males and females of Rhipicephalus sanguineus, Ixodes ricinus, or Dermacentor variabilis, or nymphs of Amblyomma americanum.
For the coating of the test vials, the test substance was dissolved and diluted in acetone p.a. to the desired concentration. The solution was then homogeneously applied to the inner wall and base of a glass vial by turning and rocking on an orbital shaker until complete evaporation of the solvent. For example, with a 900 ppm solution of test substance, an area-based dose of 5 μg/cm^2 was achieved.
After the solvent was completely evaporated, 5-10 adult ticks were put in each coated test vial, which was then sealed with a perforated plastic lid and incubated in a horizontal position in the dark at room temperature and ambient humidity (Rhipicephalus sanguineus) or in a climate-controlled cabinet (Ixodes ricinus, Dermacentor variabilis, Amblyomma americanum [21° C., 85% rel. hum.]). Acaricidal activity against the respective tick species was determined after 48 h. For this, ticks were collected to the base of the test vial by gentle knocking, and test vials were then incubated on a hotplate at 45-50° C. for no longer than 5 min. Ticks which remained motionless on the base of the test vial or moved uncoordinated without deliberately climbing up to avoid the heat were considered dead or moribund, respectively.
A substance was judged to have good acaricidal activity against the respective tick species when at least 80% of ticks were found dead or moribund at a dose of the substance of g/cm^2. An acaricidal activity of 100% means all ticks were dead or moribund. An acaricidal activity of 0% means none of the ticks was found dead or moribund.

Rhipicephalus sanguineus = experiment: In vitro contact test with adult hard ticks (Rhipicephalus sanguineus); conditions: read-out: acaricidal activity; for pest or weed control at 0.2 µg/cm2, 0.2 µg/cm2: dose 0.2 μg/cm^2, 48 h; for pest or weed control at 1 µg/cm2, 1 µg/cm2: dose 1 μg/cm^2, 48 h
Procedure, shortened: as §1

[2] = system: Rhipicephalus (Boophilus) microplus; experiment: In vitro injection test with Rhipicephalus (Boophilus) microplus (BOOPMI Inj); conditions: 168 h, laid fertile eggs after 7 days, read-out: acaricidal activity; for pest or weed control at 0.00016 mg: dose 0.16 μg/animal injected; for pest or weed control at 0.0008 mg: dose 0.8 μg/animal injected
Procedure, shortened: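 Test substance in DMSO; 1 μl injected into abdomen of each of 5 engorged adult female ticks, then held at 28° C., 85% rel. hum. Activity scored after 7 days from laying of fertile eggs: 100% = no eggs or all infertile, 0% = all eggs fertile.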

Ctenocephalides felis [3] = experiment: Ctenocephalides felis in-vitro feeding test with fleas (CTECFE oral); conditions: 48 hours, read-out: insecticidal feeding activity; for pest or weed control at 0.032 ppm: dose 0.032 ppm in citrated cattle blood; for pest or weed control at 0.16 ppm: dose 0.16 ppm in citrated cattle blood; for pest or weed control at 0.8 ppm: dose 0.8 ppm in citrated cattle blood; for pest or weed control at 4 ppm: dose 4 ppm in citrated cattle blood
Procedure, shortened: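 About 20 unfed adult cat fleas fed through parafilm on citrated cattle blood containing test substance (DMSO solution diluted in blood), held at about 37° C. Kill rate scored after 48 hours, 100% meaning all fleas dead.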

Spodoptera litura = experiment: Insecticidal testing against common cutworm; type: in vivo; conditions: foliar, 144 h, concentration 100 ppm, cabbage leaf dip, second-stage larvae, after 6 days, read-out: pesticidal rate
Description: Insecticidal Testing Against Common Cutworm (Spodoptera litura)

Plutella xylostella = experiment: Insecticidal testing against diamondback moth; type: in vivo; conditions: foliar, 144 h, concentration 100 ppm, cabbage leaf dip, third-stage larvae, after 6 days, read-out: pesticidal rate
Description: Insecticidal Testing Against Diamondback Moth (Plutella xylostella)

Laodelphax striatellus = experiment: Insecticidal testing against small brown planthopper; type: in vivo; conditions: 144 h, concentration 100 ppm, sprayed rice seedlings, after 6 days, read-out: pesticidal rate
Procedure, shortened: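 Acetone solution of compound at a set concentration sprayed onto rice seedlings, air-dried, then exposed to 10 planthoppers (one group). Held at 25° C; survival rate recorded after 6 days.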

Dermacentor variabilis = experiment: In vitro contact test with adult hard ticks (Dermacentor variabilis); conditions: read-out: acaricidal activity; for pest or weed control at 0.2 µg/cm2, 0.2 µg/cm2: dose 0.2 μg/cm^2, 48 h; for pest or weed control at 1 µg/cm2, 1 µg/cm2: dose 1 μg/cm^2, 48 h
Procedure, shortened: as §1

## O=C(Nc1cccc(C(=O)Nc2c(I)cc(C(F)(C(F)(F)F)C(F)(F)F)cc2[S+]([O-])C(F)(F)F)c1F)c1ccc(F)cc1 (centres unmarked) [Compound 65]
Ctenocephalides felis [1]
  pest or weed control at 0.2 µg/cm2, 0.2 µg/cm2: 95%
  pest or weed control at 1 µg/cm2, 1 µg/cm2: 95%
Amblyomma americanum
  pest or weed control at 0.2 µg/cm2, 0.2 µg/cm2: 90%
  pest or weed control at 1 µg/cm2, 1 µg/cm2: 90%
Ixodes ricinus; dose 1 μg/cm^2, 48 h
  pest or weed control at 1 µg/cm2, 1 µg/cm2: 90%
Ixodes ricinus
  pest or weed control at 5 µg/cm2, 5 µg/cm2: 90%
Rhipicephalus sanguineus
  pest or weed control at 0.2 µg/cm2, 0.2 µg/cm2: 90%
  pest or weed control at 1 µg/cm2, 1 µg/cm2: 90%
[2]
  pest or weed control at 0.00016 mg: 100%
  pest or weed control at 0.0008 mg: 100%
Ctenocephalides felis [3]
  pest or weed control at 0.032 ppm: 95%
  pest or weed control at 0.16 ppm: 95%
  pest or weed control at 0.8 ppm: 95%
  pest or weed control at 4 ppm: 95%
Spodoptera litura
  pest or weed control at 100 ppm: ≥ 70%
Plutella xylostella
  pest or weed control at 100 ppm: ≥ 70%
Laodelphax striatellus
  pest or weed control at 100 ppm: ≥ 70%

## O=C(Nc1cccc(C(=O)Nc2c(I)cc(C(F)(C(F)(F)F)C(F)(F)F)cc2C(F)(F)F)c1F)c1ccc(Cl)c(Cl)c1 [Compound 80]
Dermacentor variabilis
  pest or weed control at 0.2 µg/cm2, 0.2 µg/cm2: 90%
  pest or weed control at 1 µg/cm2, 1 µg/cm2: 90%
Ixodes ricinus
  pest or weed control at 5 µg/cm2, 5 µg/cm2: 90%
Rhipicephalus sanguineus
  pest or weed control at 1 µg/cm2, 1 µg/cm2: 90%
[2]
  pest or weed control at 0.0008 mg: 100%
Ctenocephalides felis [3]
  pest or weed control at 0.032 ppm: 95%
  pest or weed control at 0.16 ppm: 95%
  pest or weed control at 0.8 ppm: 95%
  pest or weed control at 4 ppm: 95%
Spodoptera litura
  pest or weed control at 100 ppm: ≥ 70%
Plutella xylostella
  pest or weed control at 100 ppm: ≥ 70%
Laodelphax striatellus
  pest or weed control at 100 ppm: ≥ 70%

## O=C(Nc1cccc(C(=O)Nc2c(I)cc(C(F)(C(F)(F)F)C(F)(F)F)cc2C(F)(F)F)c1F)c1ccc(F)nc1 [Compound 116, 6-fluoro-N-(2-fluoro-3-((2-iodo-4-(perfluoropropan-2-yl)-6-(trifluoromethyl)phenyl)carbamoyl)phenyl)nicotinamide]
Ctenocephalides felis [1]; dose 0.04 μg/cm^2, dead or moribund fleas after 48 h
  pest or weed control at 0.04 µg/cm2, 0.04 µg/cm2: 95%
Ctenocephalides felis [1]
  pest or weed control at 0.2 µg/cm2, 0.2 µg/cm2: 95%
  pest or weed control at 1 µg/cm2, 1 µg/cm2: 95%
Amblyomma americanum
  pest or weed control at 0.2 µg/cm2, 0.2 µg/cm2: 90%
  pest or weed control at 1 µg/cm2, 1 µg/cm2: 90%
Ixodes ricinus; 48 h
  pest or weed control at 0.2 µg/cm2, 0.2 µg/cm2: 90%
  pest or weed control at 1 µg/cm2, 1 µg/cm2: 90%
Rhipicephalus sanguineus
  pest or weed control at 1 µg/cm2, 1 µg/cm2: 90%
[2]; dose 0.032 μg/animal injected
  pest or weed control at 32 ng: 100%
[2]
  pest or weed control at 0.00016 mg: 100%
  pest or weed control at 0.0008 mg: 100%
Ctenocephalides felis [3]; dose 0.0064 ppm in citrated cattle blood
  pest or weed control at 0.0064 ppm: 95%
Ctenocephalides felis [3]
  pest or weed control at 0.032 ppm: 95%
  pest or weed control at 0.16 ppm: 95%
  pest or weed control at 0.8 ppm: 95%
  pest or weed control at 4 ppm: 95%
Spodoptera litura
  pest or weed control at 100 ppm: ≥ 70%
Plutella xylostella
  pest or weed control at 100 ppm: ≥ 70%
Laodelphax striatellus
  pest or weed control at 100 ppm: ≥ 70%

## O=C(Nc1cccc(C(=O)Nc2c(I)cc(C(F)(C(F)(F)F)C(F)(F)F)cc2C(F)(F)F)c1F)c1ccc(F)cc1 [Compound 63]
Ctenocephalides felis [1]
  pest or weed control at 1 µg/cm2, 1 µg/cm2: 95%
Dermacentor variabilis
  pest or weed control at 0.2 µg/cm2, 0.2 µg/cm2: 90%
  pest or weed control at 1 µg/cm2, 1 µg/cm2: 90%
Ixodes ricinus; dose 0.2 μg/cm^2, 48 h
  pest or weed control at 0.2 µg/cm2, 0.2 µg/cm2: 90%
Ixodes ricinus; dose 1 μg/cm^2, 48 h
  pest or weed control at 1 µg/cm2, 1 µg/cm2: 90%
Ixodes ricinus
  pest or weed control at 5 µg/cm2, 5 µg/cm2: 90%
Rhipicephalus sanguineus
  pest or weed control at 0.2 µg/cm2, 0.2 µg/cm2: 90%
  pest or weed control at 1 µg/cm2, 1 µg/cm2: 90%
[2]
  pest or weed control at 0.00016 mg: 100%
  pest or weed control at 0.0008 mg: 100%
Ctenocephalides felis [3]
  pest or weed control at 0.032 ppm: 95%
  pest or weed control at 0.16 ppm: 95%
  pest or weed control at 0.8 ppm: 95%
  pest or weed control at 4 ppm: 95%
Spodoptera litura
  pest or weed control at 100 ppm: ≥ 70%
Plutella xylostella
  pest or weed control at 100 ppm: ≥ 70%
Laodelphax striatellus
  pest or weed control at 100 ppm: ≥ 70%
